A word on the pIC50: it is −log10 of the IC50, conventionally taken in molar units. High values mean a small IC50, low ones a large IC50.

The values below come from patent publication US9109004B2, “Progesterone receptor antagonists” (Bayer Intellectual Property GmbH, priority 2010, dated 2015).

Data set [1] is described as follows: Metabolic stability in human liver microsomes (HLM). The conditions noted are these: from HLM half-life, well-stirred model, phase I reactions; 1 μM test compound. The data set is classed as in vitro ADME. On the procedure:
Metabolic stability of 4-[(11β,17β)-17-hydroxy-3-oxo-17-(pentafluoro-ethyl)estra-4,9-dien-11-yl]benzamide and 4′-[(11β,17β)-17-hydroxy-3-oxo-17-(pentafluoro-ethyl)estra-4,9-dien-11-yl]biphenyl-4-carboxamide in human liver microsomes (HLM) Isolated human liver microsomes (HLM) were used for assessing the metabolic stability of compounds of general formula I. The incubations were carried out with 2.4 ml HLM solution (0.5 mg/ml protein content), 30 μl of the test compound (final concentration 1 μM) and 0.6 ml of the cofactor mixture (=NADPH-generating system of 3 IU glucose-6-phosphate dehydrogenase, 14.6 mg glucose-6-phosphate, 1.2 mg NADP) at 37° C. in 100 mM phosphate buffer at pH 7.4. Samples are taken at 6 time points (2-60 min), precipitated with an equal volume of methanol, and the recovery of the test substances used in the supernatant is determined by LC-MS/MS analysis. The intrinsic clearance of the substance in the liver microsome assay can be calculated from the value found for the half-life of substance breakdown. Using this, on the basis of various physiological characteristics according to the well-stirred model it is possible to predict a (metabolic) in-vivo clearance with respect to phase I reactions.
On the technique in general: Microsomes from liver hold many membrane-bound enzymes, among them those of drug oxidation.

Data set [2] addresses T1, human progesterone receptor A (Homo sapiens, UniProt P06401).
T1 construct: expressed in transfected cells; host or cells: SK-N-MC human neuroblastoma cells, stably transfected
T1 sequence (P06401 1-769 isoform P06401-2): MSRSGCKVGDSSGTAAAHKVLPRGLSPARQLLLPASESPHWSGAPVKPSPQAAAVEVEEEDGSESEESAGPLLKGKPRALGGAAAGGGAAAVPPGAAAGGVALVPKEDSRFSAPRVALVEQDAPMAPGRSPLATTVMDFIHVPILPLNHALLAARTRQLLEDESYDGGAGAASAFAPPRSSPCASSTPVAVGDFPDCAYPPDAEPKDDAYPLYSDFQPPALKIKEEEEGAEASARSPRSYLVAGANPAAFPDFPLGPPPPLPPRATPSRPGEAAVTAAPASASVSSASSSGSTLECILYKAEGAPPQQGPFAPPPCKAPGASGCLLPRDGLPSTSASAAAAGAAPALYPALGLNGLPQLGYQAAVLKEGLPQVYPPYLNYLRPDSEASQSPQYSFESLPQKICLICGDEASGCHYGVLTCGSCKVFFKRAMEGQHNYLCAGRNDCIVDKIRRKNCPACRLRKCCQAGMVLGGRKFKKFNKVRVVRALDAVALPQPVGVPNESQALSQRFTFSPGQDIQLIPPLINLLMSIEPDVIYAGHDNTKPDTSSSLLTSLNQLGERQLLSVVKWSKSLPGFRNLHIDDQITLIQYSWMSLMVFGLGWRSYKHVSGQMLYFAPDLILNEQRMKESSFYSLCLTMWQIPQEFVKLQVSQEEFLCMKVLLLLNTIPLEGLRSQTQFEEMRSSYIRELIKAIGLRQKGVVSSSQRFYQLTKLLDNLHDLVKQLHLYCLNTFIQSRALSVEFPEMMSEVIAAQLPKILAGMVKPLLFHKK
The data set is described as follows: Progesterone-receptor-antagonistic action in stably transfected SK-N-MC cells, MTV-LUC reporter (PR-A). The data set is classed as cell-based. Conditions: antagonistic potency vs 0.1 nmol/l promegestone, 24 hours, luciferase. Put shortly:
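SK-N-MC neuroblastoma cells stably expressing human PR-B or PR-A plus MMTV-LUC reporter, treated 24 h with 0.1 nmol/l promegestone plus test compound at 0.01 nmol/l–1 μmol/l. Luciferase in lysates read as RLU; values as % efficacy and IC50.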

The target of data set [3] is T2, human progesterone receptor B (Homo sapiens, UniProt P06401).
T2 construct: expressed in transfected cells; host or cells: SK-N-MC human neuroblastoma cells, stably transfected
T2 sequence (P06401 1-933): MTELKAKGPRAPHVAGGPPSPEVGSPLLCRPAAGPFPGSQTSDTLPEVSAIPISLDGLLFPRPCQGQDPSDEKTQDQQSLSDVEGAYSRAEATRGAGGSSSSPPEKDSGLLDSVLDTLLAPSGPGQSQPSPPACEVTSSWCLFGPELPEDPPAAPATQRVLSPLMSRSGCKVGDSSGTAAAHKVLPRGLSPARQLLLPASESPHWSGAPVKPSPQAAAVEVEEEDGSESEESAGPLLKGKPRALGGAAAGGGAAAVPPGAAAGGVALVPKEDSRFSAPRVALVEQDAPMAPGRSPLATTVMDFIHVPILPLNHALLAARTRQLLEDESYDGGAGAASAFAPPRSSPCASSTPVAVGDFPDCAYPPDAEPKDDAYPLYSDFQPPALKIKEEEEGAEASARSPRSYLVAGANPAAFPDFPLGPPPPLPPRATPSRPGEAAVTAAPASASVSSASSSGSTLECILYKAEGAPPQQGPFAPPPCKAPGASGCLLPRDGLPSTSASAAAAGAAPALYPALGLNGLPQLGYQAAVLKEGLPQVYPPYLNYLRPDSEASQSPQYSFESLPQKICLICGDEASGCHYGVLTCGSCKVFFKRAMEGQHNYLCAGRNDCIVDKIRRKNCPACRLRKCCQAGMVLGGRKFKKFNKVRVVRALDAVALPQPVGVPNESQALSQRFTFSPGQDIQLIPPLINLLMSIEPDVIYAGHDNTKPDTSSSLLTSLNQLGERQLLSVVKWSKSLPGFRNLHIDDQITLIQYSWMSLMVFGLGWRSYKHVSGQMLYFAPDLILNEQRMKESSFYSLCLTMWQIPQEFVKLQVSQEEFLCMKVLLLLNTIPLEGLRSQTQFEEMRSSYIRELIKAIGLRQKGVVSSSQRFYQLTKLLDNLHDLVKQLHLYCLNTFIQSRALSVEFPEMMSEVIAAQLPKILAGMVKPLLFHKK
The data set is described as follows: Progesterone-receptor-antagonistic action in stably transfected SK-N-MC cells, MTV-LUC reporter (PR-B). The data set is classed as cell-based. Conditions: antagonistic potency vs 0.1 nmol/l promegestone, 24 hours, luciferase. On the procedure: Progesterone-Receptor-Antagonistic Action in Stable Transfectants of Human Neuroblastoma Cells (SK-N-MC Cells) with the Human Progesterone A or Progesterone B Receptor and an MTV-LUC Reporter Construct
SK-N-MC cells (human neuroblastoma cells) that have been stably transfected with plasmids that express the human progesterone receptor B (pRChPR-B-neo) or the human progesterone receptor A (pRChPR-A-neo) and a reporter construct (pMMTV-LUC), were incubated for 24 hours either in the absence (negative control) or in the presence of increasing amounts of the particular test compound (0.01 nmol/l, 0.1 nmol/l, 1 nmol/l, 10 nmol/l, 100 nmol/l and 1 μmol/l), to determine the agonistic efficacy. As positive control of reporter gene induction, the cells were treated with the synthetic gestagen promegestone (0.01 nmol/l, 0.1 nmol/l, 1 nmol/l, 10 nmol/l, 100 nmol/l and 1 μmol/l). For determination of the antagonistic activity, the cells were treated with 0.1 nmol/l promegestone and additionally with increasing amounts of the particular test compound (0.01 nmol/l, 0.1 nmol/l, 1 nmol/l, 10 nmol/l, 100 nmol/l and 1 μmol/l). The activity of the reporter gene LUC (LUC=luciferase) was determined in the cell lysates and was measured as RLU (relative light units). All measured values are given as % efficacy and as EC50 or IC50 concentrations.

pIC50: −log10 of the molar value.

On to `C[C@]12C[C@H](c3ccc(-c4ccc(C(N)=O)cc4)cc3)C3=C4CCC(=O)C=C4CC[C@H]3[C@@H]1CC[C@@]2(O)C(F)(F)C(F)(F)F` [Example 79, 4′-[(11β,17β)-17-Hydroxy-3-oxo-17-(pentafluoroethyl)estra-4,9-dien-11-yl]biphenyl-4-carboxamide], for which the “(metabolic) in-vivo clearance in humans predicted” value in data set [1] was 3.5 mL/min/kg. Further, the negative logarithm of the IC50 (pIC50) in data set [2] was 11.00; in data set [3], 10.15.
